Key:
[1] = continuous intravenous administration; cited from earlier work
[2] = rodents; cited from earlier work
[3] = biological target: NMDA receptor composed of four subunits including 2 sets of heterodimers of NR1 and NR2B (human GRIN1 and GRIN2B expressed in HEK293 cell) (Homo sapiens, UniProt Q13224); experiment: NR2B Ca^2+ influx assay; type: cell-based; settings: 10 μM final compound concentration; 30 μM glutamic acid and 30 μM glycine; HEK293 cells expressing GRIN1 and GRIN2B; Fluo-4 fluorescence; read-out: inhibitory rate (10 μM compound concentration)
From the text: To confirm the “antagonistic action on an NMDA receptor containing the NR2B subunit” of the compound of the present invention, human embryonic kidney cell expressing the “NMDA receptor composed of four subunits including 2 sets of heterodimers of NR1 and NR2B”, specifically HEK293 cell expressing human glutamate ionotropic receptor NMDA type subunit 1 (GRIN1) and human glutamate ionotropic receptor NMDA type subunit 2B (GRIN2B), was used and the activation suppressive effect on the receptors was measured.
HEK293 cells that express GRIN1 and GRIN2B were purchased from ChanTest (Human NMDA (NR1/NR2B) Receptor-expressing, stable replicating cell line (HEK293) catalog No. CT6121).
As an index of the NMDA receptor activation, intracellular calcium ion (Ca^2+) influx caused by the binding of glycine and glutamic acid with NR1 and NR2B, respectively, was used.
HEK293 cells that express GRIN1 and GRIN2B were cultured in DMEM/F-12 (COSMO BIO, 10-092-CM) medium added with 10% FBS (fetal bovine serum, AusGene), 100 units/mL penicillin, 100 μg/mL streptomycin, 500 μg/mL neomycin, 100 μg/mL Zeocin (registered trade mark, Invitrogen), 5 μg/mL Blasticidin in a cell culture flask in an incubator (under 37° C., 5% CO2).
The cells were detached from the flask with trypsin the day before the assay, suspended in a seeding medium (DMEM (Invitrogen, 31053) added with 10% FBS, 100 units/mL penicillin, 100 μg/mL streptomycin) at 8×10^5 cells/mL, seeded by 25 μL per well in a 384-well plate (Falcon, 356663) at 20000 cells/well, and cultured overnight in an incubator. On the day of the assay, tetracycline (Wako Pure Chemical Industries, Ltd., 209-16561) was diluted with the seeding medium at 2 μg/mL, added at 25 μL/well to the plate seeded with the cells, and cultured for 2 hr in an incubator. Thereafter, the medium was removed, and the cells were washed with 50 μL/well assay buffer (137 mM NaCl, 4 mM KCl, 1.8 mM CaCl2, 10 mM HEPES (pH 7.2), 10 mM Glucose, 0.1% BSA). Then, a loading buffer (assay buffer added with 2.5 μM Fluo-4AM, 2 mM Amaranth, 1 mM Tartrazine) was added at 25 μL/well, and the cells were incubated in the incubator for 30 min, and at room temperature for 15 min. A solution of the Example compound diluted with the above-mentioned assay buffer at 30 μM (final concentration 10 μM) was added at 25 μL/well, and the cells were left standing for 15 min at room temperature. Using FDSS7000EX/μCELL (Hamamatsu Photonics K.K.), an assay buffer containing 30 μM glutamic acid and 30 μM glycine was added at 25 μL/well, and fluorescence signals with wavelengths of Excitation 480 nm and Emission 540 nm were measured every 3 seconds for 5 min. The inhibitory activity was calculated as a relative activity value (inhibitory rate) that inhibits 100% of the cumulative value of the fluorescence value of a well added with an assay buffer free of glutamic acid, glycine, relative to the cumulative value of the fluorescence value of each well.

[4] = system: NMDA receptor containing NR2B subunit (NMDA receptor expressed in the hippocampus tissue); experiment: In vivo [^3H]MK-801 binding test; design: species or system Sprague Dawley rats; settings: [^3H]MK-801 binding inhibitory rate, rat hippocampus, vehicle 100%, MK-801 maleate 0%
Protocol: In Vivo [^3H]MK-801 Binding Test
To confirm the “functionally antagonistic action in vivo for NMDA receptor containing NR2B subunit” that the compound of the present invention has, a binding test was performed using a tritium-labeled form of MK-801 ((5R,10S)-5-methyl-10,11-dihydro-5H-5,10-epiminodibenzo[a,d][7]annulene) ([^3H]MK-801) which is a compound that binds to the gate of the NMDA receptor.
An Example compound (1 mg/kg/2 mL, 0.5% MC water) or vehicle ([…], 0.5% MC water) was orally administered (p.o.) to Sprague Dawley rats (body weight 180-260 g). After a certain period of time (near the time when the maximum blood concentration was reached), [^3H]MK-801 (20 μCi/kg/mL, Muromachi Kikai Co., Ltd.) was intravenously administered from the tail vein. […] 10 mL of liquid scintillator A (Fujifilm Wako Pure Chemical Corporation) was added, and the residual radioactivity was measured by a liquid scintillation counter (ALOKA LSC-6100). The residual radioactivity of 100 μL of the homogenate before filtration through the glass filter was also measured in the same manner. By calculating [residual radioactivity in filter/residual radioactivity in 100 μL of homogenate], correction by the dose of [^3H]MK-801 was performed, and the value was used as a binding ratio of [^3H]MK-801 in the NMDA receptor expressed in the hippocampus tissue of each individual. […]

[5] = in vivo; cited from earlier work
[6] = intravenous single administration; cited from earlier work
[7] = in vivo; cited from earlier work; remark: listed apart in the source

NMDA receptor composed of four subunits including 2 sets of heterodimers of NR1 and NR2B (human GRIN1 and GRIN2B expressed in HEK293 cell), sequence (Q13224 27-1484, other chains not shown): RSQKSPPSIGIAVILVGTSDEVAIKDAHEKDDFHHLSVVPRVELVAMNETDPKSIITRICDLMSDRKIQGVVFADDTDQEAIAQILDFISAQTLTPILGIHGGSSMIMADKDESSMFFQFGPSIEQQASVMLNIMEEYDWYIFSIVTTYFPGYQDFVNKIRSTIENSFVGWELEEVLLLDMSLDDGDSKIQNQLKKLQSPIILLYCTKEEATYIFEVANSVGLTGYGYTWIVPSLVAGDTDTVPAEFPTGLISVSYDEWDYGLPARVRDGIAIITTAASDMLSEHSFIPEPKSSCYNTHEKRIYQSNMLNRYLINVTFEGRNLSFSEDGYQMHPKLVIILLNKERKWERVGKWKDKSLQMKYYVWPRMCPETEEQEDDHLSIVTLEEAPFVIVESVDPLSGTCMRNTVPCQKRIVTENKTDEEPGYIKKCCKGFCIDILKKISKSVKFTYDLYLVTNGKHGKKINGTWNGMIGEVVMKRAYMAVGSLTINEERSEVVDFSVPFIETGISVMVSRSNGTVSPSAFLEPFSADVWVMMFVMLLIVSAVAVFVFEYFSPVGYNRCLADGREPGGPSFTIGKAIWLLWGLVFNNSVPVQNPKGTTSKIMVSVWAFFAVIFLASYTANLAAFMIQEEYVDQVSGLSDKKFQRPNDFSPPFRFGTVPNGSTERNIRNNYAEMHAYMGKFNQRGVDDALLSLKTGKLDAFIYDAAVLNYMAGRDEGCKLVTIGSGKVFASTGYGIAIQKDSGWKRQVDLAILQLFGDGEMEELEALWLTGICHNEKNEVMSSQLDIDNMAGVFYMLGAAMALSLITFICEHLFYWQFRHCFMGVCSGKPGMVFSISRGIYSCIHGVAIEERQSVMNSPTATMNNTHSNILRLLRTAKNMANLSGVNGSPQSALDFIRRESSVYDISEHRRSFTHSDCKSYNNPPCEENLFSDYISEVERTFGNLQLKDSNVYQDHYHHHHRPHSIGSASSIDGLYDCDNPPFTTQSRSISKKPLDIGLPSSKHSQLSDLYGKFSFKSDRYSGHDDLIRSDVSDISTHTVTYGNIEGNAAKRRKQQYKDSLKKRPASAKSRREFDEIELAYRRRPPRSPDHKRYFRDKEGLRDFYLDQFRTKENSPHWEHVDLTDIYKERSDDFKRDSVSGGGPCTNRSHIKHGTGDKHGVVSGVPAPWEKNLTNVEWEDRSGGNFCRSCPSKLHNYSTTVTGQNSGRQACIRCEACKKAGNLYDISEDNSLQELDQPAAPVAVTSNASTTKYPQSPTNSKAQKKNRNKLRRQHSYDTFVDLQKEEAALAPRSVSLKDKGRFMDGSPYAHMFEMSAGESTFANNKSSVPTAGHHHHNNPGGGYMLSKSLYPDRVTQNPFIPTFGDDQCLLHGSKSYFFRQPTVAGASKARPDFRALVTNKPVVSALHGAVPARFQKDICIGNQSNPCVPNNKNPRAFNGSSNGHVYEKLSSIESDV

## C[C@@H]([C@@H](O)c1ccc(O)cc1)N1CCC(O)(c2ccccc2)CC1 [CP-101, 606]
[1]
  treatment resistant-depression symptom: significantly improves treatment resistant-depression symptom
[2]
  number of occurrence and depth of cortical spreading depression: suppress the number of occurrence and the depth of cortical spreading depression

## COc1ncc(C#N)cc1CNC(=O)c1cnc(OC(F)F)c(F)c1 [Example 9, N-[(5-cyano-2-methoxypyridin-3-yl)methyl]-6-(difluoromethoxy)-5-fluoropyridine-3-carboxamide]
[3]
  inhibition at 10 µM: 94%
[4]
  inhibitory rate (1 mg/kg, p.o.): 10%

## COc1ccc(C#N)c(F)c1CNC(=O)c1cnc(OC(F)F)c(F)c1 [Example 17, N-[(3-cyano-2-fluoro-6-methoxyphenyl)methyl]-6-(difluoromethoxy)-5-fluoropyridine-3-carboxamide]
[3]
  inhibition at 10 µM: 96%
[4]
  inhibitory rate (1 mg/kg, p.o.): 17%

## CC(C(O)c1ccc(O)cc1)N1CCC(Cc2ccccc2)CC1 (stereo not drawn) [Ifenprodil]
[5]
  pain sense threshold: the pain sense threshold increases

## CNC1(c2ccccc2Cl)CCCCC1=O (stereo not drawn) [ketamine]
[6]
  depression symptoms accompanying major depression and bipolar disorder: improves depression symptoms accompanying major depression and bipolar disorder rapidly and in a sustained manner

## CC12CC3CC(C)(C1)CC(N)(C3)C2 [memantine]
[7]
  peripheral symptoms of dementia: partially improves peripheral symptoms of dementia
